The results in this text go back to ChEMBL document CHEMBL1944557 (Bioorg Med Chem, 2012).

Some results are limits rather than exact numbers.

Assay [1] concerns the target T1, 5-hydroxytryptamine receptor 2C (Homo sapiens, UniProt P28335).
T1 sequence (P28335 whole entry): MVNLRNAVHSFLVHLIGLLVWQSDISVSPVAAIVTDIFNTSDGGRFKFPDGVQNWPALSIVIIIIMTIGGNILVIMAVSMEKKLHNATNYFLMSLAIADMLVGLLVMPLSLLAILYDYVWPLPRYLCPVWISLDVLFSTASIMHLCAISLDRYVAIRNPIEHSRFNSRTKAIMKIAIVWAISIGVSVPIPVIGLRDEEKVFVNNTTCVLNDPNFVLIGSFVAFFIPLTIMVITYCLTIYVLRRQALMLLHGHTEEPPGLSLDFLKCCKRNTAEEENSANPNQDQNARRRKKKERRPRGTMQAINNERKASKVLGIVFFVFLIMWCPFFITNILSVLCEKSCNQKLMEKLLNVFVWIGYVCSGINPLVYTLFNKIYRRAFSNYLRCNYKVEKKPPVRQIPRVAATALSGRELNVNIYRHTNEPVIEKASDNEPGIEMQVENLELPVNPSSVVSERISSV
The assay can be described thus: Binding affinity at 5-HT2C receptor by radioligand displacement assay. (Loss of bound radioactivity is the signal in a displacement assay; it reports binding, not function.)

Assay [2] deals with 5-hydroxytryptamine receptor 2A (Homo sapiens, UniProt P28223). The assay can be described thus: Binding affinity at 5-HT2A receptor by radioligand displacement assay.
5-hydroxytryptamine receptor 2A, sequence (P28223 whole entry): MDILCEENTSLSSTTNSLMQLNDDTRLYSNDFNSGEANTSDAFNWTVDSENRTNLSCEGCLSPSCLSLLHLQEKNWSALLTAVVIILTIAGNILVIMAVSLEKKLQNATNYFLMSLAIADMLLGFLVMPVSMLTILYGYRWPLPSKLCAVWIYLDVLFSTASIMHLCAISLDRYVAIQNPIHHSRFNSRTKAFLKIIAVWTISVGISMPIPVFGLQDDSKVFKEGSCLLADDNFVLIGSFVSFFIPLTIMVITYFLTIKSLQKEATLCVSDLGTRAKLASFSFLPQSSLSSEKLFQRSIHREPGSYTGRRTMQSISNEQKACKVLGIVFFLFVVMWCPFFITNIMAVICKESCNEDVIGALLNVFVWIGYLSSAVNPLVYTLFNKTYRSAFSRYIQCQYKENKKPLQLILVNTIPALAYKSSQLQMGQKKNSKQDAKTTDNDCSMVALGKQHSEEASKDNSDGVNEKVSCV
Assay [3] has as its target Histamine H1 receptor (Homo sapiens, UniProt P35367). The assay is described as follows: Displacement of [3H]-Pyrilamine from human histamine H1 receptor by liquid scintillation counter.
Assay [4] has as its target D(2) dopamine receptor (Homo sapiens, UniProt P14416). The assay is described as follows: Displacement of [3H]-N-methylspiperone from dopamine D2 receptor expressed in […] MES-23.5 cells. Format: cell-based.
The target in assay [5] is D(3) dopamine receptor (Homo sapiens, UniProt P35462). The assay can be described thus: Displacement of [3H]-N-methylspiperone from dopamine D3 receptor expressed in […] MES-23.5.
D(3) dopamine receptor, sequence (P35462 whole entry): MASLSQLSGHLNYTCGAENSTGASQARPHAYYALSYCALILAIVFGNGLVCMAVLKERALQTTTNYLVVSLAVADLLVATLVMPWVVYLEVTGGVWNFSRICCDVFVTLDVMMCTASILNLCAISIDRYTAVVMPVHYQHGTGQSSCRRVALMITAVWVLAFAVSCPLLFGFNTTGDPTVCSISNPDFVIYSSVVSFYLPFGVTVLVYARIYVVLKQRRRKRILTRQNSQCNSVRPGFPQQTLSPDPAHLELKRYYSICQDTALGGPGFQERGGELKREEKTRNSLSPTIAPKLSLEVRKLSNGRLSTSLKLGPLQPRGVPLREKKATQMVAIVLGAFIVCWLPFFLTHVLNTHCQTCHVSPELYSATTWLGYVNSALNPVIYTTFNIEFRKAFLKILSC
Assay [6] addresses T2, D(4) dopamine receptor (Rattus norvegicus, UniProt P30729).
T2 sequence (P30729 whole entry): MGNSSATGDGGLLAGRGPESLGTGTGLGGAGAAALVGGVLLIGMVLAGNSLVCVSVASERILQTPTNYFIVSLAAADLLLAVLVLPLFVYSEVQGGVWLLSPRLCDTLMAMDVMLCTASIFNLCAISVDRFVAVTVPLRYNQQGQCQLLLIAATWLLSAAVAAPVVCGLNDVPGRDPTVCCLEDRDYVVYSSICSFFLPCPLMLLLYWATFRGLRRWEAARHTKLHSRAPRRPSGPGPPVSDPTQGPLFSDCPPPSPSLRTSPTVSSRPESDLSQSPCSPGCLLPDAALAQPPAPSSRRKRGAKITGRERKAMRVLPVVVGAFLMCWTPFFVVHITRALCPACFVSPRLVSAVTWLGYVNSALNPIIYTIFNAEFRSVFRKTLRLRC
The assay can be described thus: Displacement of [3H]-N-methylspiperone from rat dopamine D4 receptor.

Assay [7] concerns the target T3, 5-hydroxytryptamine receptor 1A (Homo sapiens, UniProt P08908).
T3 sequence (P08908 whole entry): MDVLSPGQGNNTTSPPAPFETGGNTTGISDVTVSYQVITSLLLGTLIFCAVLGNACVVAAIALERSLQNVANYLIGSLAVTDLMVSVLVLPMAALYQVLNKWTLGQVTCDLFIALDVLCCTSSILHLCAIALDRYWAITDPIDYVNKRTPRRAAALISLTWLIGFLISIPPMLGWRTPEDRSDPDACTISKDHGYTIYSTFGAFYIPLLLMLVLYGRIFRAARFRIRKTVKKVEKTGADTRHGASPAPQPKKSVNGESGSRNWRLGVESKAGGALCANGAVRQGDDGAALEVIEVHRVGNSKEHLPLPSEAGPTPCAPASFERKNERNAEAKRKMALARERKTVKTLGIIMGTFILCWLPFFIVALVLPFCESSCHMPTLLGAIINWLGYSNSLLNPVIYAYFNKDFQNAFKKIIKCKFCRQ
The assay is described as follows: Displacement of [3H]8-OH-DPAT from 5-HT1A receptor expressed in CHO cells after 20 mins by liquid scintillation counting. The class given is cell-based.

D(2) dopamine receptor, sequence (P14416 whole entry): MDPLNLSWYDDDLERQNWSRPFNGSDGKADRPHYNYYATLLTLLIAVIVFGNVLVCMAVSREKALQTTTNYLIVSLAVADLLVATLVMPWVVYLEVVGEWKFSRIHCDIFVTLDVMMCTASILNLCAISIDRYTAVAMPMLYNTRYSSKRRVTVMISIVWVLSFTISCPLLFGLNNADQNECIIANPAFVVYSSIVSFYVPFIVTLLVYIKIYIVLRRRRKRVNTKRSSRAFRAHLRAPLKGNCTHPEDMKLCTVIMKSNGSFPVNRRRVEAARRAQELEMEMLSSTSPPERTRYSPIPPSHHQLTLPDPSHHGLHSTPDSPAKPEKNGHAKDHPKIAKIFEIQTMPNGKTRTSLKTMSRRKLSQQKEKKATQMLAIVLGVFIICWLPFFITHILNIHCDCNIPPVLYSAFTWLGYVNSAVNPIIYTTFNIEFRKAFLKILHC
Histamine H1 receptor, sequence (P35367 whole entry): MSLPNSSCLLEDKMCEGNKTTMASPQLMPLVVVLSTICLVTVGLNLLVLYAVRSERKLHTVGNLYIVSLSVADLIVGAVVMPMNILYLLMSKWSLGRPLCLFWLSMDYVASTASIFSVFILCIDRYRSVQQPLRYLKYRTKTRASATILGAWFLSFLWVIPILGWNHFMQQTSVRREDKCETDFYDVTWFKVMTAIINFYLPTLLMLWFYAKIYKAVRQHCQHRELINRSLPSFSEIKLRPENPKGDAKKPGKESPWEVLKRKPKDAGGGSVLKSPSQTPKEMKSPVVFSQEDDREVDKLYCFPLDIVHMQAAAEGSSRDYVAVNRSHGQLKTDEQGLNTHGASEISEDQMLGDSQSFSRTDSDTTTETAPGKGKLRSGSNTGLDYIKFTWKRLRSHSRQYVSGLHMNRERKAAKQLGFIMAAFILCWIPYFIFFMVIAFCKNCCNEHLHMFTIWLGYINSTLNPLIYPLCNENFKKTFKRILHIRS

As to `OC1(c2ccc(Cl)cc2)C[C@H]2CC[C@@H](C1)N2CCCOc1ccc(F)cc1` (stereo partly specified), in assay [1], the Ki (as a rule, a dissociation constant, usually derived from enzyme kinetics or from competition with a known ligand) was “Not Active”.
Turning to `Fc1ccc(SCCCN2CCCN(c3ccc(Cl)cc3)CC2)cc1`, the Ki in assay [2] (read-out: Ki) was determined as 163 nM; in assay [1] (read-out: Ki), 2530 nM; in assay [3] (read-out: Ki) it was 800 nM.
On to `Fc1ccc(OCCCN2CCCN(c3ccc(Cl)cc3)CC2)cc1`, for which the Ki in assay [2] (read-out: Ki) is 567 nM; in assay [1] (read-out: Ki), over 10000 nM; in assay [3] (read-out: Ki), 509 nM.
With `Fc1ccc(CCCCN2CCCN(c3ccc(Cl)cc3)CC2)cc1`, the Ki in assay [2] (read-out: Ki) turned out to be 510 nM; in assay [1] (read-out: Ki) it was 4100 nM; in assay [4] (read-out: Ki), 139 nM; in assay [5], 3040 nM; in assay [6] it was 123 nM; in assay [3] (read-out: Ki) it was 1250 nM.
`Clc1ccc(N2CCCN(CCCCc3nc4ccccc4s3)CC2)cc1`: the Ki in assay [7] (read-out: Ki) came out at 263 nM; in assay [2] (read-out: Ki) it was 159 nM; in assay [1] (read-out: Ki) it was 1420 nM; in assay [4] (read-out: Ki) it was 259 nM; in assay [5] it was 152 nM; in assay [6], 28.6 nM. Moreover, the Ki in assay [3] (read-out: Ki) worked out at 61 nM.
Take `Clc1ccc(N2CCCN(CCCc3nc4ccccc4s3)CC2)cc1`: the Ki in assay [7] (read-out: Ki) is 216 nM; in assay [2] (read-out: Ki), 696 nM; in assay [4] it was “Not Active”; in assay [5] it was 863 nM; in assay [6], 431 nM; in assay [3] (read-out: Ki), 665 nM.
Consider `Clc1ccc(N2CCCN(Cc3nc4ccccc4s3)CC2)cc1`, for which the Ki result in assay [7] (cho), in assay [2], in assay [1] and in assay [3] was “Not Active” throughout.
Turning to `O=C(CCCCN1CCCN(c2ccc(Cl)cc2)CC1)c1nc2ccccc2s1`, the Ki turned out to be 495 nM in assay [7] (read-out: Ki); 1000 nM in assay [2] (read-out: Ki); 5920 nM in assay [1] (read-out: Ki); 1980 nM in assay [4] (read-out: Ki); 1050 nM in assay [5]; 1210 nM in assay [6]. The Ki in assay [3] (read-out: Ki) was 129 nM.
As to `O=C(CCCN1CCCN(c2ccc(Cl)cc2)CC1)c1nc2ccccc2s1`, the Ki entry is “Not Active” in assay [7] (cho); 1040 nM in assay [2] (read-out: Ki); “Not Active” in assay [1]; “Not Active” in assay [4]; 777 nM in assay [5]; 126 nM in assay [6].
Turning to `O=C(CCCCN1[C@@H]2CC[C@H]1CC(O)(c1ccc(Cl)cc1)C2)c1nc2ccccc2s1` (stereo partly specified), the Ki result in assay [7] (cho), in assay [2] and in assay [1] was “Not Active” throughout.
